Assays:
[1] = target: Tubulin alpha chain (Sus scrofa) (UniProt P02550); assay: Percentage control on Tubulin- Dependent GTP hydrolysis was evaluated at 10 micro M concentration; type: functional; set-up: scale not given: the % may be the effect or the level left
[2] = target: Tubulin alpha chain (Sus scrofa) (UniProt P02550); assay: Percentage control on Tubulin- Dependent GTP hydrolysis was evaluated at 50 micro M concentration; type: functional; set-up: scale not given: the % may be the effect or the level left
P388 = assay: Inhibition of murine P388 lymphocytic leukemia cell proliferation; type: functional; settings: Mus musculus, read-out: ED50 (the source's name)
[3] = target: Tubulin alpha chain (Sus scrofa) (UniProt P02550); assay: Percentage control on Tubulin-Dependent GTP hydrolysis was evaluated at 50 uM concentration; type: functional; set-up: scale not given: the % may be the effect or the level left
[4] = target: Tubulin alpha chain (Sus scrofa) (UniProt P02550); assay: Percentage inhibition of [3H]colchicine binding to tubulin was evaluated at 50 uM concentration
[5] = target: Tubulin alpha chain (Sus scrofa) (UniProt P02550); assay: Percentage control on Tubulin-Dependent GTP hydrolysis was evaluated at 10 uM concentration; type: functional; set-up: scale not given: the % may be the effect or the level left

Tubulin alpha chain (Sus scrofa), sequence (P02550 whole entry, looked up): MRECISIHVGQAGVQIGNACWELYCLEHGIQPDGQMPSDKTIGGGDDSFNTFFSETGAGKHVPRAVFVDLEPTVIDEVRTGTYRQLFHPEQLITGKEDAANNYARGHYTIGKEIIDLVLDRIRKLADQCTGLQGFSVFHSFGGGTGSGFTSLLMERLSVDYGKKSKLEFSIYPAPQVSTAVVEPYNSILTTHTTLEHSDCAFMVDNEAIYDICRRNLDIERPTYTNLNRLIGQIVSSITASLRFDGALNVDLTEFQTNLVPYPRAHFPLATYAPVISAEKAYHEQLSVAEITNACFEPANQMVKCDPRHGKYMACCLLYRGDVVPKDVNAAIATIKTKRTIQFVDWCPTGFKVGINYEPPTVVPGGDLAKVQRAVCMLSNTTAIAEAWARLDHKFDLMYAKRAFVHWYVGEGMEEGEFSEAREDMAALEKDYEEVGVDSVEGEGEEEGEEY

SMILES	Control [1] [%]	Control [2] [%]	EC50 (P388) [µg/mL]	also measured
COc1ccc(/C=C\c2cc(OC)c(OC)c(OC)c2)cc1O	161	160		
COc1cc([C@@H]2c3cc4c(cc3[C@H](O)[C@H]3COC(=O)[C@H]23)OCO4)cc(OC)c1OC	43	31		
COc1ccc(-c2sc3cc(OC)ccc3c2C(=O)c2cc(OC)c(O)c(OC)c2)cc1			> 100	
COc1ccc(-c2sc3cc(OC)ccc3c2C(=O)c2cc(OC)c(OC)c(OC)c2)cc1				Control [3]: 135%; inhibition [4]: 28%; Control [5]: 122%
COc1ccc(-c2sc3cc(OC)ccc3c2C(=O)c2c(OC)cccc2OC)cc1			> 100	
COc1ccc(-c2sc3cc(OC)ccc3c2C(=O)c2cc(OC)cc(OC)c2)cc1			> 100	

Source: ChEMBL document CHEMBL1131675, “A new anti-tubulin agent containing the benzo[b]thiophene ring system” (1999)
